Data published in patent US20220323406A1, “METHODS AND COMPOSITIONS FOR DIFFERENTIATING STEM CELLS” (Massachusetts Institute of Technology, priority 2019, published 2022).

How the values were obtained:
[1] = system: ENR+CD organoids (ISC to Paneth cell differentiation); assay: Secondary (validation) screen: LYZ.S CCh-stimulated lysozyme secretion, 2.5-D 384-well ENR+CD organoids; type: cell-based, mouse; settings: 6-day ENR+CD, vs ENR+CD+DMSO
Procedure: (§1) Drugs were tested at a narrowed dose range around each treatment's identified optimal dose from the primary screen (4× below, 2× above and below).
(§2) High-throughput screening.
(§3) Secondary lysozyme secretion assay screen. Confirmatory secondary screening with primary hits was performed using the above 384-well plate method. The screen was conducted with 4-plate replicates with a base media of ENR+CD. Media was supplemented with compound at day 0 and day 3 (n=8 well replicates per dose) at four different doses: two-fold above, two-fold below, and four-fold below the optimal final dose for each respective treatment. Additionally, each plate carried a large number of ENR+DMSO or ENR+CD+DMSO (vehicle) control wells (n=100 for ATP, and n=25 for LYZ.NS and LYZ.S) for robust normalization. ATP, non-stimulated lysozyme activity and CCh-stimulated lysozyme activity was again measured and the collected data was again processed in a custom R-script, per primary screen with slight modification. Values were log10 transformed, and a plate-wise FC was calculated for each well based on the median value of ENR+CD+DMSO (vehicle) control wells to normalize plate to plate variability.

[2] = system: ENR+CD organoids (ISC to Paneth cell differentiation); assay: Secondary (validation) screen: LYZ.NS basal lysozyme secretion, 2.5-D 384-well ENR+CD organoids; type: cell-based, mouse; settings: 6-day ENR+CD, vs ENR+CD+DMSO
Procedure: as §1, §2, §3

ENR+CD organoids [3] = assay: Primary screen: ATP (CellTiter-Glo 3D, CTG) cell number/viability, 2.5-D 384-well ENR+CD organoids; settings: primary screen; for Dose.FC.CTG: FC relative to plate median; for Z.CTG: standard z score;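 as to all read-outs here: compounds given at plating and again on day 3 over a 6-day differentiation from ENR+CV stem-cell-enriched precursors, ATP measured on day 6, plate median as control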
[4] = system: ENR+CD organoids (ISC to Paneth cell differentiation); assay: Primary screen: CCh-stimulated lysozyme secretion LYZ.S, 2.5-D 384-well ENR+CD organoid differentiation; type: cell-based, mouse; settings: primary screen, FC relative to plate median
Excerpt: as §2

ENR+CD organoids [5] = assay: Secondary (validation) screen: ATP (CTG) assay, 2.5-D 384-well ENR+CD organoids; type: cell-based, mouse; settings: 6-day ENR+CD, vs ENR+CD+DMSO
Procedure: as §1, §2, §3

[6] = system: ENR+CD organoids (ISC to Paneth cell differentiation); assay: Primary screen: basal (non-stimulated) lysozyme secretion LYZ.NS, 2.5-D 384-well ENR+CD organoid differentiation; type: cell-based, mouse; settings: for Dose.FC.LYZ.NS: FC relative to plate median; for Z.LYZ.NS: standard z score
Excerpt: as §2

Question: What does the source list for `NC(=O)c1ccc(-c2nc(-c3ccccn3)c(-c3ccc4c(c3)OCO4)[nH]2)cc1` [SB431542]?
Answer: Dose.FC.LYZ.S ([1]; 0.06 uM): 0.067 log2 fold change; Z.LYZ.S ([1]; 0.06 uM): 0.514; repSSMD.LYZ.S ([1]; 0.06 uM): 0.855; Dose.FC.LYZ.S ([1]; 0.24 uM): 0.027 log2 fold change; Z.LYZ.S ([1]; 0.24 uM): 0.211; repSSMD.LYZ.S ([1]; 0.24 uM): 0.301; Dose.FC.LYZ.S ([1]; 0.48 uM): −0.050 log2 fold change; Z.LYZ.S ([1]; 0.48 uM): −0.387; repSSMD.LYZ.S ([1]; 0.48 uM): −0.449; Dose.FC.LYZ.S ([1]; […]): 0.072 log2 fold change; Dose.FC.LYZ.NS ([2]; 0.06 uM): 0.089 log2 fold change; Z.LYZ.NS ([2]; 0.06 uM): 0.709; repSSMD.LYZ.NS ([2]; 0.06 uM): 1.073; Dose.FC.LYZ.NS ([2]; 0.24 uM): 0.105 log2 fold change; Z.LYZ.NS ([2]; 0.24 uM): 0.838; repSSMD.LYZ.NS ([2]; 0.24 uM): 0.830; Dose.FC.LYZ.NS ([2]; 0.48 uM): −0.016 log2 fold change; Z.LYZ.NS ([2]; 0.48 uM): −0.128; repSSMD.LYZ.NS ([2]; 0.48 uM): −0.149; Dose.FC.LYZ.NS ([2]; […]): 0.116 log2 fold change; increase of cell viability compared with LY215799 (ENR+CD organoids [3]): outperformed LY215799; Dose.FC.CTG (ENR+CD organoids [3]; dose 0.08 uM): 0.380 log2 fold change; Z.CTG (ENR+CD organoids [3]; dose 0.08 uM): 0.907; Dose.FC.CTG (ENR+CD organoids [3]; dose 0.40 uM): 0.473 log2 fold change; Z.CTG (ENR+CD organoids [3]; dose 0.40 uM): 1.130; Dose.FC.CTG (ENR+CD organoids [3]; dose 2.00 uM): 0.316 log2 fold change; Z.CTG (ENR+CD organoids [3]; dose 2.00 uM): 0.754; Dose.FC.CTG (ENR+CD organoids [3]; dose 10.00 uM): 0.155 log2 fold change; Z.CTG (ENR+CD organoids [3]; dose 10.00 uM): 0.370; Dose.FC.LYZ.S ([4]; dose 0.08 uM): 0.135 log2 fold change; Dose.FC.LYZ.S ([4]; dose 0.40 uM): 0.309 log2 fold change; Dose.FC.LYZ.S ([4]; dose 2.00 uM): 0.223 log2 fold change; Dose.FC.LYZ.S ([4]; dose 10.00 uM): 0.126 log2 fold change; Dose.FC.CTG (ENR+CD organoids [5]; 0.06 uM): 0.160 log2 fold change; Z.CTG (ENR+CD organoids [5]; 0.06 uM): 1.439; repSSMD.CTG (ENR+CD organoids [5]; 0.06 uM): 0.654; Dose.FC.CTG (ENR+CD organoids [5]; 0.24 uM): 0.023 log2 fold change; Z.CTG (ENR+CD organoids [5]; 0.24 uM): 0.206; repSSMD.CTG (ENR+CD organoids [5]; 0.24 uM): 0.141; Dose.FC.CTG (ENR+CD organoids [5]; 0.48 uM): 0.083 log2 fold change; Z.CTG (ENR+CD organoids [5]; 0.48 uM): 0.752; repSSMD.CTG (ENR+CD organoids [5]; 0.48 uM): 0.527; Dose.FC.CTG (ENR+CD organoids [5]; […]): 0.120 log2 fold change; primary screen hit call (SSMD and z-scored FC cutoffs in both LYZ assays) ([6]; LYZ.NS and LYZ.S, 0.08-10 uM, 6 days ENR+CD): selected as a hit; performance on both LYZ assays compared with LY215799 ([6]; primary screen): performed almost identically to LY215799; Dose.FC.LYZ.NS ([6]; primary screen, dose 0.08 uM): 0.141 log2 fold change; Z.LYZ.NS ([6]; primary screen, dose 0.08 uM): 1.225; Dose.FC.LYZ.NS ([6]; primary screen, dose 0.40 uM): 0.174 log2 fold change; Z.LYZ.NS ([6]; primary screen, dose 0.40 uM): 1.514; Dose.FC.LYZ.NS ([6]; primary screen, dose 2.00 uM): 0.187 log2 fold change; Z.LYZ.NS ([6]; primary screen, dose 2.00 uM): 1.632; Dose.FC.LYZ.NS ([6]; primary screen, dose 10.00 uM): 0.040 log2 fold change; Z.LYZ.NS ([6]; primary screen, dose 10.00 uM): 0.346
